According to ChEMBL document CHEMBL1141998, “Synthesis and evaluation of pyrazolidine derivatives as dipeptidyl peptidase IV (DP-IV) inhibitors” (Bioorg Med Chem Lett, 2005):

target: Dipeptidyl peptidase 4 (Rattus norvegicus, UniProt P14740); experiment: Inhibitory activity against dipeptidyl peptidase IV (DP-IV)
Sequence (P14740 whole entry): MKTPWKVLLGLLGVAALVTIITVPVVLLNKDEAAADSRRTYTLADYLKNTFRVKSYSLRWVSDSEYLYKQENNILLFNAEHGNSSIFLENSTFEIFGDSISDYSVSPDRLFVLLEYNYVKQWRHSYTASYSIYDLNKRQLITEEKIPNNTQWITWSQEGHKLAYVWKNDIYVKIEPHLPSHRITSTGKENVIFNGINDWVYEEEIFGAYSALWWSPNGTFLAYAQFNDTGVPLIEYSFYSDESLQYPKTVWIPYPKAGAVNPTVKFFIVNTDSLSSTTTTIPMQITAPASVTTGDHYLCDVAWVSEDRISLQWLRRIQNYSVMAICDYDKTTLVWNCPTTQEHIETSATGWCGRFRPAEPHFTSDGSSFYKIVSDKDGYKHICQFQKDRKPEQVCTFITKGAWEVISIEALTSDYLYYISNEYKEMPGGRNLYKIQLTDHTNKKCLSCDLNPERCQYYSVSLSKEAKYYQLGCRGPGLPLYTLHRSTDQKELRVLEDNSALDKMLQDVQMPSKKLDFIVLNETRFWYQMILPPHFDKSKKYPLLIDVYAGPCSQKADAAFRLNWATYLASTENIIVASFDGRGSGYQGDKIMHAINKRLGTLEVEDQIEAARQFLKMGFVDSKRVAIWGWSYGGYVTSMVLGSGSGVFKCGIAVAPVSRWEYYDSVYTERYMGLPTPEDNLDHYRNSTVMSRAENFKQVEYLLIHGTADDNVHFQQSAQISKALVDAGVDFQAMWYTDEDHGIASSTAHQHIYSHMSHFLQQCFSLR

Structure (SMILES) | IC50
CCOC(=O)c1cccc(NC(=O)N2CCCN2C(=O)[C@@H](N)C(C)CC)c1 (stereo not given in full) | 8.8 µM
CCC(C)[C@H](N)C(=O)N1CCCN1C(=O)Nc1ccc(C#N)cc1 (stereo not given in full) | 9.2 µM
CCC(C)[C@H](N)C(=O)N1CCCN1C(=O)Nc1ccc([N+](=O)[O-])c(Cl)c1 (stereo not given in full) | 4.71 µM
CCC(C)[C@H](N)C(=O)N1CCCN1C(=O)Nc1ccccc1 (stereo not given in full) | 15 µM
CCC(C)[C@H](N)C(=O)N1CCCN1C(=O)Nc1ccc(C(F)(F)F)cc1 (stereo not given in full) | 25 µM
CC(C)C[C@H](N)C(=O)N1CCCN1C(=O)Nc1cccc([N+](=O)[O-])c1 | 20.7 µM
CCC(C)[C@H](N)C(=O)N1CCCN1C(=O)OCc1ccccc1 (stereo not given in full) | 23.3 µM
CCC(C)[C@H](N)C(=O)N1CCCN1C(=O)Nc1ccc([N+](=O)[O-])cc1 (stereo not given in full) | 7.06 µM
CCC(C)[C@H](N)C(=O)N1CCCN1C(=O)Nc1ccc(Cl)c(Cl)c1 (stereo not given in full) | 5.6 µM

Continued, values first:

IC50 | Structure (SMILES)
4.6 µM | O=C(CNC1CCCCC1)N1CCCN1C(=O)Nc1cccc([N+](=O)[O-])c1
3.9 µM | CCOC(=O)c1ccc(NC(=O)N2CCCN2C(=O)[C@@H](N)C(C)CC)cc1 (stereo not given in full)
1.56 µM | CCC(C)[C@H](N)C(=O)N1CCCN1C(=O)Nc1cccc([N+](=O)[O-])c1 (stereo not given in full)
2.27 µM | CCC(C)[C@H](N)C(=O)N1CCCN1C(=O)Nc1ccc([N+](=O)[O-])c(F)c1 (stereo not given in full)
2.1 µM | CC(C)[C@H](N)C(=O)N1CCCN1C(=O)Nc1cccc([N+](=O)[O-])c1
4.04 µM | CCC(C)[C@H](N)C(=O)N1CCCN1C(=O)Nc1cccc(C#N)c1 (stereo not given in full)
